We go through 35 compounds from patent US20260102359A1, “COMBINATION TREATMENT OF DERMAL AND TRANSDERMAL FIBROTIC DISEASES, DISORDERS AND ASSOCIATED PAIN AND INFLAMMATION” (ERESINA, LLC, priority 2022, published 2026).

For data set [1], the system named is hDMFa myofibroblast cells. Put plainly: Myofibroblast cytotoxicity, MTS cell viability assay. In general terms: Formazan colour is commonly taken as a measure of viable cells.
Data set [2] has as its system hDMFa myofibroblast cells.
Setting [3] is: serum-free media with inhibitor 8-12 hours, MTS cell viability, inhibition normalized as percentage of negative control.
The mark [4] stands for this setting: MTS viability, 8-12 hours incubation in serum-free inhibitor media, normalized to negative control.
[5] abbreviates: serum-free media with inhibitor 8-12 hours, MTS viability normalized to negative control.
The mark [6] stands for this setting: 8-12 hours in serum-free inhibitor media, […].

Structures can show the parent of a compound that is named as a salt. Where two headings read alike, the source gives them in different places. *1 amine or outer side, *2 acyl side, *3 side chain or, on linkers, in order; H or OH if unused. Where a SMILES comes first, the peptide text is derived from it. Bridges are numbered along the chain shown (N, C = ends). [ ]: non-standard residue; d: D form. The star is where a group is joined. pTerphenylCO(4''-OnC5H11) = CCCCCOc1ccc(-c2ccc(-c3ccc(C(=O)*)cc3)cc2)cc1; Orn(4R-OH,5R-OH) = O=C([C@H](C[C@@H](O)[C@@H](O)N[*:3])N[*:1])[*:2]; hTyr(3S-OH,4S-OH) = N[C@H](C(=O)O)[C@H](O)[C@@H](O)c1ccc(O)cc1; Pro(3S-OH,4S-Me) = C[C@H]1CN[C@H](C(=O)O)[C@H]1O; Hyp = O=C(O)[C@@H]1C[C@@H](O)CN1

In the case of `CCCCCOc1ccc(-c2ccc(-c3ccc(C(=O)N[C@H]4C[C@@H](O)[C@@H](O)NC(=O)[C@@H]5[C@@H](O)[C@@H](C)CN5C(=O)[C@H]([C@@H](C)O)NC(=O)[C@H]([C@H](O)[C@@H](O)c5ccc(O)cc5)NC(=O)[C@@H]5C[C@@H](O)CN5C(=O)[C@H]([C@@H](C)O)NC4=O)cc3)cc2)cc1` [Cmpd 124, Anidulafungin] ({pTerphenylCO(4''-OnC5H11)}-[Orn(4R-OH,5R-OH)]T[Hyp][hTyr(3S-OH,4S-OH)]T[Pro(3S-OH,4S-Me)]; lactam 1-C), the “Compound Myofibroblast Cytotoxicity Activity” value in data set [1] (setting [3]) is given as “+++++”.
Turning to `CO[C@H]1C[C@H](O[C@H]2[C@H](C)O[C@@H](O[C@@H]3/C(C)=C/C[C@@H]4C[C@@H](C[C@]5(C=C[C@H](C)[C@@H](C6CCCCC6)O5)O4)OC(=O)[C@@H]4C=C(C)[C@@H](O)[C@H]5OC/C(=C\C=C\[C@@H]3C)[C@]54O)C[C@@H]2OC)O[C@@H](C)[C@@H]1O` [Cmpd 379, Doramectin], the “Compound Myofibroblast Cytotoxicity Activity” value in data set [1] (setting [4]) was “+++++”.
In the case of `Br.Cc1ccc(Sc2ccccc2N2CCNCC2)c(C)c1` [Cmpd 1012, Vortioxetine (Lu AA21004) HBr], in data set [1] (setting [5]), the “Compound Myofibroblast Cytotoxicity Activity” value was “+++++”.
As to `OCCCCCCCCO` [Cmpd 38, 1,8-Octanediol], the “Compound Myofibroblast Cytotoxicity Activity” value in data set [1] (setting [3]) was “+”.
Consider `COc1ccc2c(c[n+](C)c3c4cc5c(cc4ccc23)OCO5)c1OC.[Cl-]` [Cmpd 244, Chelerythrine Chloride], for which, in data set [1] (setting [3]), the “Compound Myofibroblast Cytotoxicity Activity” value is “+++++”.
As for `CC(C)(C)c1cc(C(C)(C)C)c(NC(=O)c2c[nH]c3ccccc3c2=O)cc1O` [Cmpd 545, Ivacaftor (VX-770)], the “Compound Myofibroblast Cytotoxicity Activity” value in data set [1] (setting [4]) is “+++++”.
On to `C[C@H]1[C@H](C)CC[C@]2(C(=O)O)CC[C@]3(C)C(=CC[C@@H]4[C@@]5(C)C[C@@H](O)[C@H](O)[C@@](C)(CO)[C@@H]5CC[C@]43C)[C@H]12` [Cmpd 135, Asiatic acid], for which, in data set [1] (setting [3]), the “Compound Myofibroblast Cytotoxicity Activity” value is “+++++”.
`Cc1ccc(Sc2ccccc2N2CCNCC2)c(C)c1` [Cmpd 1011, Vortioxetine]: the “Compound Myofibroblast Cytotoxicity Activity” value in data set [1] (setting [5]) is “+++++”.
As to `NCCC(=O)N[C@@H](Cc1cnc[nH]1)C(=O)O` [Cmpd 568, L-Carnosine], the “Compound Myofibroblast Cytotoxicity Activity” value in data set [1] (setting [6]) is 8.
For `CCCCCCCCCCCCCCCC[N+](C)(C)C.[Br-]` [Cmpd 242, Cetrimonium Bromide (CTAB)], in data set [1] (setting [3]), the “Compound Myofibroblast Cytotoxicity Activity” value is “+++++”.
With `CCCCCCCCN=c1ccn(CCCCCCCCCCn2ccc(=NCCCCCCCC)cc2)cc1` [Cmpd 730, Octenidine (dihydrochloride)], the “Compound Myofibroblast Cytotoxicity Activity” value in data set [1] (setting [6]) is listed as “+++++”.
The same measure, in the same setting: the result for `CC1(C)CC[C@]2(C(=O)O)CC[C@]3(C)C(=CC[C@@H]4[C@@]5(C)CC[C@H](O)C(C)(C)[C@@H]5CC[C@]43C)[C@@H]2C1` [Cmpd 732, Oleanolic acid] reads “+++++”.
As to `COC(=O)OCOc1c2n(ccc1=O)N([C@@H]1c3ccccc3SCc3c1ccc(F)c3F)[C@@H]1COCCN1C2=O` [Cmpd 155, Baloxavir marboxil], the “Compound Myofibroblast Cytotoxicity Activity” value in data set [1] (setting [3]) is given as “+++++”.
On to `CC1=C(C(=O)OC(C)C)C(c2cccc([N+](=O)[O-])c2)C(C(=O)OC2CN(C(c3ccccc3)c3ccccc3)C2)=C(N)N1` (centres unmarked) [Cmpd 148, Azelnidipine], for which, in data set [1] (setting [3]), the “Compound Myofibroblast Cytotoxicity Activity” value is on record as “+++++”.
For the compound `CN(C)CCC=C1c2ccccc2C(C)(C)c2ccccc21` [Cmpd 647, Melitracen hydrochloride], the “Compound Myofibroblast Cytotoxicity Activity” value in data set [1] (setting [6]) is recorded as “+++++”.
Same read-out and setting: the result for `C#C[C@]1(O)CC[C@H]2[C@@H]3CCC4=CCCC[C@@H]4[C@H]3CC[C@@]21C` [Cmpd 623, Lynestrenol] reads “+++++”.
As to `Cc1ccc([C@@H]2O[C@H](CO)[C@@H](O)[C@H](O)[C@H]2O)cc1Cc1ccc(-c2ccc(F)cc2)s1` [Cmpd 208, Canagliflozin], the “Compound Myofibroblast Cytotoxicity Activity” value in data set [1] (setting [3]) is reported as “+++++”.
As for `Cl.NCCCC[C@H](N)C(=O)O` [Cmpd 597, L-Lysine HCl], in data set [1] (8-12 hours in serum-free inhibitor media, […], HCl), the “Compound Myofibroblast Cytotoxicity Activity” value is reported as “+”.
As for `Nc1ccc2cc3ccc(N)cc3nc2c1.Nc1ccc2cc3ccc(N)cc3nc2c1.O=S(=O)(O)O` [Cmpd 798, Proflavine Hemisulfate], the “Compound Myofibroblast Cytotoxicity Activity” value in data set [1] (setting [6]) was “+++++”.
As for `CCCCCCCCCCCC[N+](C)(C)CCOc1ccccc1` [Cmpd 377, Domiphen Bromide], the “Compound Myofibroblast Cytotoxicity Activity” value in data set [1] (setting [4]) was “+++++”.
Take `Cc1cc(O)cc(C(C)C)c1` [Cmpd 53]: the “Compound Myofibroblast Cytotoxicity Activity” value in data set [1] (setting [3]) was “+”.
`CN[C@@H]1C[C@H]2O[C@@](C)([C@@H]1OC)n1c3ccccc3c3c4c(c5c6ccccc6n2c5c31)C(=O)NC4` [Cmpd 888, Staurosporine]: in data set [1] (setting [5]), the “Compound Myofibroblast Cytotoxicity Activity” value was “+++++”.
As for `O=C1[C@H]2CCCC[C@H]2C(=O)N1CCCCN1CCN(c2nsc3ccccc23)CC1` [Cmpd 772, Perospirone hydrochloride], in data set [1] (setting [6]), the “Compound Myofibroblast Cytotoxicity Activity” value was “+++++”.
Still for that read-out and setting: next, `CCCCCCCCCCCCCCCCCCOP(=O)([O-])OC1CC[N+](C)(C)CC1` [Cmpd 771, Perifosine]: “+++++”; `CC(=O)Oc1cc(C)c(OC(C)=O)c2ccccc12` [Cmpd 650, Menadiol Diacetate]: “+++++”.
In the case of `COc1ccc2c(O[C@@H]3C[C@H]4C(=O)N[C@]5(C(=O)NS(=O)(=O)C6CC6)C[C@H]5/C=C\CCCCN(C)C(=O)[C@@H]4C3)cc(-c3nc(C(C)C)cs3)nc2c1C` [Cmpd 863, Simeprevir], the “Compound Myofibroblast Cytotoxicity Activity” value in data set [1] (setting [5]) is reported as “+++++”.
With Sericin Gel [Cmpd 859], the “Compound Myofibroblast Cytotoxicity Activity” value in data set [1] (setting [5]) is given as “+”.
As for `CO[C@H]1C[C@@H]2CC[C@@H](C)[C@@](O)(O2)C(=O)C(=O)N2CCCC[C@H]2C(=O)O[C@H]([C@H](C)C[C@@H]2CC[C@@H](OC(=O)C(C)(CO)CO)[C@H](OC)C2)CC(=O)[C@H](C)/C=C(\C)[C@@H](O)[C@@H](OC)C(=O)[C@H](C)C[C@H](C)/C=C/C=C/C=C/1C` [Cmpd 924, Temsirolimus (CCl-779, NSC 683864)], in data set [2], the “Compound Myofibroblast Cytotoxicity Activity” value is “+++++”.
Same read-out and setting: next, `CC/C(=C(/CC)c1ccc(O)cc1)c1ccc(O)cc1` [Cmpd 358, Diethylstilbestrol]: “+++”; `CC1=CCC(O)(C(C)C)CC1` (centres unmarked) [Cmpd 931, Terpinen-4-ol]: “++”; `CC(C)C[C@H](N)C(=O)O` [Cmpd 596, L-Leucine]: “+++”.
Consider Sodium Aescinate [Cmpd 869], for which, in data set [1] (setting [5]), the “Compound Myofibroblast Cytotoxicity Activity” value is on record as “+++++”.
For the compound `Nc1n[n+]([O-])c2ccccc2[n+]1[O-]` [Cmpd 948, Tirapazamine], the “Compound Myofibroblast Cytotoxicity Activity” value in data set [2] is “++++”.
Take `O=C1CC[C@@H](C(=O)O)N1` [Cmpd 613, L-Pyroglutamic acid]: the “Compound Myofibroblast Cytotoxicity Activity” value in data set [2] was “++++”.
On to `COc1cc(/C=C/C(=O)O)ccc1O` [Cmpd 453, Ferulic Acid], for which the “Compound Myofibroblast Cytotoxicity Activity” value in data set [2] is reported as “++”.
